Earlier results as cited in patent US11154491B2, “Use of Undaria extract to reduce signs of skin aging” (Kimberly-Clark Worldwide, Inc., priority 2014, dated 2021).

Tested on: 3T3-L1 cells
Conditions: literature

In the case of Fucoidan, the adipogenesis is listed as “inhibit adipogenesis”.
